Results taken from patent US20250032580A1, “USE OF ADNF POLYPEPTIDES IN THERAPY” (RAMOT AT TEL-AVIV UNIVERSITY LTD., priority 2021, published 2025).
“Also recorded” adds a separate entry of the source.

Legend:
[1] = tested on: Tyr mice; test: CatWalk gait analysis; format: in vivo, mouse; parameters: key to NAP efficacy: motor impediments: corrections by NAP treatment (+)
Experimental: Animals—Animals were housed under a 12-hour light/dark cycle, with food and water ad-libitum. Mouse pups were subcutaneously administrated with NAP [having an amino acid sequence NAPVSIPQ (SEQ ID NO: 2), 25 μg NAP/1 ml saline] as described (8, 12). At 21 days of age mice were administered daily intranasal NAP in vehicle solution (“DD”—7.5 mg/ml of NaCl, 1.7 mg/ml of citric acid, 3 mg/ml of disodium phosphate dihydrate, and 0.2 mg/ml of 50% benzalkonium chloride solution) (0.5 μg NAP/5p1 DD) (8, 9, 12, and U.S. Pat. No. 10,912,819 to Gozes). These mice continued to behavioral analysis as described hereinbelow. The noninvasive intranasal route was chosen as these experiments required daily handling and administration. Age (weeks) of mice during behavioral experiments (mean±SEM) was as follows: Catwalk-9.23±0.15, grooming-10±0.15, social approach-10.5±0.12, odor-discrimination-12.12±0.13, hanging-wire-13±0.14, hotplate-13.18±0.13. Group size was determined following previous experiments (12). Pups were randomly allocated to either the NAP or DD group according to sex and genotype. All procedures involving animals were conducted under the supervision and approval of the institutional animal care and use committee of Tel Aviv University and the Israeli Ministry of Health.
Catwalk—Was performed as previously described (12).
CatWalk: Briefly, The CatWalk XT (Noldus Inc. Leesburg, VA) was used to analyze the gait of unforced, moving mice^10 Mice had to cross the runway of the CatWalk XT apparatus in a consistent manner, and a successful run was defined when an animal ran the track without any interruption or hesitation. Every mouse was tested until 3 successful runs were achieved.
Base of support is the average width between either the front paws or the hind paws. Swing (sec) or swing phase is the duration in seconds of no contact of a paw with the glass plate. Swing Speed is the speed (Distance Unit/second) of the paw during Swing. Max Contact Max Intensity is the maximum Intensity at Max Contact of a paw. Intensity ranges from 0 to 255 in arbitrary units. The intensity of a print depends on the degree of contact between a paw and the glass plate and increases with increasing weight. Therefore, Intensity is a measure of weight put on the glass plate.
The Intensity parameter is used to assess the effects of neuropathic pain, including mechanical allodynia. Max Contact Mean Intensity is the mean Intensity of a paw at Max Contact. Print length is the length (horizontal direction) of the complete print. The complete print is the sum of all contacts with the glass plate, as if the animal's paw would have been inked. Print width is the width (vertical direction) of the complete paw. Print area is the surface area of the complete print. Max Intensity is the maximum Intensity of the complete paw. Mean intensity is the mean Intensity of the complete paw.

[2] = tested on: Tyr mice; test: Ultrasonic vocalizations (USV) and syntax, DeepSqueak; format: in vivo, mouse; parameters: key to NAP efficacy: speech impediments: corrections by NAP treatment (+)
Experimental: USV: On P8, each pup was separated from the dam and placed in an empty cage for 6 minutes, in a quiet room and was recorded using the M500-384 USB Ultrasound Microphone (Petterson, Sweden). Pups were distinguished from one another using the tattoos listed above. After 6 minutes pups were reunited with its dam. Data were analyzed using DeepSqueak. Data were loaded onto DeepSqueak, frequencies between 40-70 kHz were analyzed using the mouse call network V2. Calls were denoised using post hoc denoising network. For syntax analysis, Syntax was classified using Wright K means network. Syntax transition probability charts were generated using DeepSqueak and Matlab. Further USV experiments were performed on P8 pups as previously described (12) with slight modifications.

[3] = tested on: Tyr-GFP mice; test: Dendritic spine quantitation; format: in vivo, mouse; parameters: key to NAP efficacy: synaptic structural alterations: corrections by NAP treatment (+)
Experimental: Spine quantitation—For determination of dendritic spine morphology, the Tyr-GFP mouse model was used and generated as described(12). 1.5-2-month-old Tyr-GFP-mice were treated for 9 consecutive days with either intraperitoneal NAP injection (0.4 μg/0.1 ml saline) or with 0.1 ml saline. On day 9, mice were perfused, and brains were subjected to immunohistochemistry and imaging (12).

[4] = tested on: Tyr mice; test: RNA seq of mouse spleens; format: in vivo; parameters: key to NAP efficacy: gene expression patterns: corrections by NAP treatment (+)
Experimental: RNA seq—Total RNA was extracted from 14-week-old mouse spleens and sequenced using standard methods on NextSeq500 system (Illumina) as detailed. Data were analyzed as previously described (9).

[5] = tested on: SHANK3 mouse model (InsG3680 mutation); test: Open field behavior; format: in vivo; details: intranasal, once daily, five days a week for a month
Experimental: To this end, mice with the ASD-linked InsG3680 mutation were used. Two behavioral assessments were performed on make mice: • 1) Open field behavior attesting to anxiety and depression (Open field behavioral assessment technology was previously described, e.g.); and • 2) Social recognition behavior, related to autistic traits (the social recognition test was previously described, e.g..
This surprising finding is of importance as there is a psychiatric illness and regression in individuals with Phelan-McDermid syndrome.

[6] = tested on: BTBR mouse; test: Social recognition test; format: in vivo; details: BTBR idiopathic autism mouse, FIG. 14
[7] = tested on: Adnp+/− mouse; parameters: key: corrections by NAP treatment (+); details: second symbol of cell, cited from earlier work
[8] = tested on: adult compromised patients; details: cited from earlier work
[9] = Tyr mouse, first symbol of cell
[10] = males and WT females, data not shown

CC[C@H](C)[C@H](NC(=O)[C@H](CO)NC(=O)[C@@H](NC(=O)[C@@H]1CCCN1C(=O)[C@H](C)NC(=O)[C@@H](N)CC(N)=O)C(C)C)C(=O)N1CCC[C@H]1C(=O)N[C@@H](CCC(N)=O)C(=O)O [NAP, NAPVSIPQ]
Front base of support ([1]; Tyr mice, males and females): NAP correcting this phenotype in males | NAP efficacy: motor impediments ([1]; Tyr mouse (gait), first symbol of cell): +/(gait)+ | Gait parameters ([1]; WT mice, data not shown): No major NAP effect | Intensity parameters (gait) ([1]; female Tyr mice): significant NAP correction | Swing speed and swing duration ([1]; female Tyr mice): ameliorated by NAP | Print width ([1]; female Tyr mice, FIG. 1F): significant NAP correction effect | Print length and area ([1]; male Tyr mice, daily intranasal NAP): significant NAP recovery | Number of syllables vocalized ([2]; NAP-treated Tyr males, 8 for WT and Tyr): 10 | Syntax complexity ([2]; P8 Tyr pups, both sexes): powerful corrective effect on both sexes; also recorded: significant improvement with NAP treatment | Total USVs produced ([2]; P8 Tyr pups, females and males): no NAP effects | NAP efficacy: speech impediments ([2]; Tyr mouse (syntax), first symbol of cell): +/+ (syntax) | Syntax ([2]; WT pups, data not shown): minor varied impact | NAP efficacy: synaptic structural alterations [3, 9]: +/+ | Mushroom shaped spine density, motor cortex ([3]; female Tyr mice): significantly affecting | PSD95 volume in the hippocampus ([3]; female Tyr mice): complete resolution | Increase in motor cortex L5 layer spine density ([3]; female Tyr mice, i.p. NAP, 9 days): ~17% | Hippocampal total spines and subtypes ([3]; females and WT males, data not shown): no genotype or treatment changes in females or treatment effect on WT males | Increase in CA1 hippocampal dendritic spine density ([3]; male Tyr mice, i.p. NAP 0.4 μg/0.1 ml saline, 9 days): ~23% | Motor cortex spine density [3, 10]: No genotype or treatment changes were observed in males and no treatment effect was found on WT females | Motor cortex spine subtypes [3, 10]: No NAP effect | Genotype/NAP effect on splenic gene expression ([4]; Tyr mice, males vs females): very minor genotype/NAP effect on males, and a more comprehensive effect on females | NAP efficacy: gene expression patterns [4, 9]: +/+ | Number of RNA transcripts affected by the Tyr Adnp mutation, corrected by NAP treatment ([4]; female spleens): 89 | Number of RNA transcripts affected by the Tyr Adnp mutation, corrected by NAP treatment ([4]; male spleens): 13 | Cumulative duration in the center (open field) [5]: significantly increased | Effects on social recognition (preference of the mouse rather than the cup) [6]: also observed | NAP efficacy: cognitive impairments, behavioral deficits ([7]; Adnp+/− mouse (8)): +(odor)/+(8) | NAP efficacy: axonal transport ([7]; Adnp+/− mouse): +/+ | NAP efficacy: gene expression patterns ([7]; Adnp+/− mouse): +/+ | NAP efficacy: global developmental delays ([7]; Adnp+/− mouse): +/+ | NAP efficacy: microbiota ([7]; Adnp+/− mouse): +/+ | NAP efficacy: motor impediments ([7]; Adnp+/− mouse): +/(gait)+ | NAP efficacy: short stature ([7]; Adnp+/− mouse): + | NAP efficacy: speech impediments ([7]; Adnp+/− mouse): +/+ (syntax) | NAP efficacy: synaptic structural alterations ([7]; Adnp+/− mouse): +/+ | NAP efficacy: tauopathy, hyperphosphorylated Tau deposits ([7]; Adnp+/− mouse): +/+ | Clinical efficacy ([8]; adult patients): enhancement of cognitive function and functional activities of daily living | Safety and tolerance ([8]; hundreds of adult compromised patients): proven safety and tolerance
